Measured values from ChEMBL document CHEMBL1909046, “DrugMatrix in vitro pharmacology data”.

Target: T1, Endothelin-1 receptor (Homo sapiens, UniProt P25101); further: in other assays of this panel Not Active means under 50% inhibition at 10 µM
T1 sequence (P25101 whole entry): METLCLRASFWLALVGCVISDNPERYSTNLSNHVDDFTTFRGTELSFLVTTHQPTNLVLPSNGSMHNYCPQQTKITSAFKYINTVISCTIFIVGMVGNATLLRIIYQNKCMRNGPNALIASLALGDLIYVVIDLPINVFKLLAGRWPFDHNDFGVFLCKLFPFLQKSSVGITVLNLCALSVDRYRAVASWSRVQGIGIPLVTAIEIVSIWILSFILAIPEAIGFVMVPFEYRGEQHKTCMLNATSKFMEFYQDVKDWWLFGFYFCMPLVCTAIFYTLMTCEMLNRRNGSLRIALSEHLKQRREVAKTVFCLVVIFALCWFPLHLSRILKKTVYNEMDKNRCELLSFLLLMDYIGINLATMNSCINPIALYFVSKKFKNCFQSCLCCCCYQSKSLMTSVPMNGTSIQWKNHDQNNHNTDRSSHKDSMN
Type: cell membranes, Membrane
Settings: cho-k1
For `OC[C@@H](O)[C@@H](O)[C@H](O)[C@H](O)CO` [MANNITOL], the IC50 was “Not Active”.
In the case of `CC(Cl)(Cl)Cl` [TRICHLOROETHANE], the IC50 is reported as “Not Active”.
With LEAD(IV) ACETATE the IC50 was “Not Active” and the Ki was “Not Active”.
For `O=C(c1ccccc1)c1ccc2n1CCC2C(=O)O` (configuration not stated) [KETOROLAC], the IC50 was “Not Active”.

System: not listed separately
Assay: DRUGMATRIX: Tumor Necrosis Factor (TNF), Non-Selective radioligand binding (ligand: [125I] TNF-alpha)
Type: cell membranes, Membrane
Settings: u-937; Not Active = under 50% inhibition at 10 µM
For `OC[C@@H](O)[C@@H](O)[C@H](O)[C@H](O)CO` [MANNITOL], the IC50 was “Not Active” and the Ki was “Not Active”.
In the case of `CC(Cl)(Cl)Cl` [TRICHLOROETHANE], the IC50 is reported as “Not Active” and the Ki is reported as “Not Active”.
For LEAD(IV) ACETATE, the IC50 was “Not Active” and the Ki was “Not Active”.
For `O=C(c1ccccc1)c1ccc2n1CCC2C(=O)O` (configuration not stated) [KETOROLAC], the IC50 was “Not Active” and the Ki was “Not Active”.

System: not listed separately
Assay: DRUGMATRIX: beta-Lactamase enzyme inhibition (substrate: Nitrocefin)
Set-up: species or system Bacillus cereus
Settings: Not Active = under 50% inhibition at 10 µM
For `OC[C@@H](O)[C@@H](O)[C@H](O)[C@H](O)CO` [MANNITOL], the IC50 was “Not Active” and the Ki was “Not Active”.
In the case of `CC(Cl)(Cl)Cl` [TRICHLOROETHANE], the IC50 is reported as “Not Active” and the Ki is reported as “Not Active”.
With LEAD(IV) ACETATE the IC50 was “Not Active” and the Ki was “Not Active”.
In the case of `O=C(c1ccccc1)c1ccc2n1CCC2C(=O)O` (configuration not stated) [KETOROLAC], the IC50 is reported as “Not Active” and the Ki is reported as “Not Active”.

Target: Insulin receptor (Rattus norvegicus, UniProt P15127); further: in other assays of this panel Not Active means under 50% inhibition at 10 µM
Sequence (P15127 27-759 limits assumed): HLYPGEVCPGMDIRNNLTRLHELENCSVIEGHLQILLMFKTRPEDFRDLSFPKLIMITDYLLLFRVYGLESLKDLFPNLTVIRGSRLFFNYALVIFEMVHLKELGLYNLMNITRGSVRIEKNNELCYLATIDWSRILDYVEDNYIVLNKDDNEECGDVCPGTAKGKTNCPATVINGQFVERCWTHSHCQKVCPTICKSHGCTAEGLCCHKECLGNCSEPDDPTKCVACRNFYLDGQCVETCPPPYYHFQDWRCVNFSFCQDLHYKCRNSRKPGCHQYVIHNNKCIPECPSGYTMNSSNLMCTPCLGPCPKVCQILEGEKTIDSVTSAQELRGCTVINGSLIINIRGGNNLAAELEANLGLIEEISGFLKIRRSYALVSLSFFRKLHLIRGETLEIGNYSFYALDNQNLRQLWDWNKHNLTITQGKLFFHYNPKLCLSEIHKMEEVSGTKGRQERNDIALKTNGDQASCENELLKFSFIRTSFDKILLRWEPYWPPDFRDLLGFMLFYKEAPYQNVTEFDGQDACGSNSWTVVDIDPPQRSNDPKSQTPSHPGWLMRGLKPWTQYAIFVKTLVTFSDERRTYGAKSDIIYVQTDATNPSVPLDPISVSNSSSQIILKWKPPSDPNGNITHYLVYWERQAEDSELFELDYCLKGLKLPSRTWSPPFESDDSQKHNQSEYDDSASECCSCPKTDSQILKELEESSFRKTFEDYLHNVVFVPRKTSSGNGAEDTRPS
Sequence (P15127 764-1383 limits assumed): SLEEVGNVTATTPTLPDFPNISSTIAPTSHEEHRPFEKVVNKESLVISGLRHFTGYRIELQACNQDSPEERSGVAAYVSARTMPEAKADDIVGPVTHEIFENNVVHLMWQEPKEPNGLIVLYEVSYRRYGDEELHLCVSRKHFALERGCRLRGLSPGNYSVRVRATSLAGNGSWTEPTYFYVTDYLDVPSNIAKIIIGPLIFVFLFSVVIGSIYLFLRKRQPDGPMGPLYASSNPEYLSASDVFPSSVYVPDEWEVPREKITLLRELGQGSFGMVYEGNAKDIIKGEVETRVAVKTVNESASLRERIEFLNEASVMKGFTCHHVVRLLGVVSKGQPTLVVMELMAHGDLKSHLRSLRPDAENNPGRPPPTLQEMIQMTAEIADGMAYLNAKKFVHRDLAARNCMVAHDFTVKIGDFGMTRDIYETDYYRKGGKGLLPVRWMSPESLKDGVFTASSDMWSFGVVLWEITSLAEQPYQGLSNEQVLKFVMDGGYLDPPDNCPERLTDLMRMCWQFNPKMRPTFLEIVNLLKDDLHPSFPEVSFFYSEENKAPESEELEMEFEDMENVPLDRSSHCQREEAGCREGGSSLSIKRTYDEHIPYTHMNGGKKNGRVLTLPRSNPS
Type: cell membranes, Wistar, Liver, Membrane
Settings: not given
For `OC[C@@H](O)[C@@H](O)[C@H](O)[C@H](O)CO` [MANNITOL], the IC50 was “Not Active”.
For `CC(Cl)(Cl)Cl` [TRICHLOROETHANE], the IC50 was “Not Active”.
In the case of LEAD(IV) ACETATE, the IC50 is reported as “Not Active” and the Ki is reported as “Not Active”.
For `O=C(c1ccccc1)c1ccc2n1CCC2C(=O)O` (configuration not stated) [KETOROLAC], the IC50 was “Not Active”.

Target: Vascular endothelial growth factor receptor 1 (Homo sapiens, UniProt P17948); further: in other assays of this panel Not Active means under 50% inhibition at 10 µM
Sequence (P17948 whole entry): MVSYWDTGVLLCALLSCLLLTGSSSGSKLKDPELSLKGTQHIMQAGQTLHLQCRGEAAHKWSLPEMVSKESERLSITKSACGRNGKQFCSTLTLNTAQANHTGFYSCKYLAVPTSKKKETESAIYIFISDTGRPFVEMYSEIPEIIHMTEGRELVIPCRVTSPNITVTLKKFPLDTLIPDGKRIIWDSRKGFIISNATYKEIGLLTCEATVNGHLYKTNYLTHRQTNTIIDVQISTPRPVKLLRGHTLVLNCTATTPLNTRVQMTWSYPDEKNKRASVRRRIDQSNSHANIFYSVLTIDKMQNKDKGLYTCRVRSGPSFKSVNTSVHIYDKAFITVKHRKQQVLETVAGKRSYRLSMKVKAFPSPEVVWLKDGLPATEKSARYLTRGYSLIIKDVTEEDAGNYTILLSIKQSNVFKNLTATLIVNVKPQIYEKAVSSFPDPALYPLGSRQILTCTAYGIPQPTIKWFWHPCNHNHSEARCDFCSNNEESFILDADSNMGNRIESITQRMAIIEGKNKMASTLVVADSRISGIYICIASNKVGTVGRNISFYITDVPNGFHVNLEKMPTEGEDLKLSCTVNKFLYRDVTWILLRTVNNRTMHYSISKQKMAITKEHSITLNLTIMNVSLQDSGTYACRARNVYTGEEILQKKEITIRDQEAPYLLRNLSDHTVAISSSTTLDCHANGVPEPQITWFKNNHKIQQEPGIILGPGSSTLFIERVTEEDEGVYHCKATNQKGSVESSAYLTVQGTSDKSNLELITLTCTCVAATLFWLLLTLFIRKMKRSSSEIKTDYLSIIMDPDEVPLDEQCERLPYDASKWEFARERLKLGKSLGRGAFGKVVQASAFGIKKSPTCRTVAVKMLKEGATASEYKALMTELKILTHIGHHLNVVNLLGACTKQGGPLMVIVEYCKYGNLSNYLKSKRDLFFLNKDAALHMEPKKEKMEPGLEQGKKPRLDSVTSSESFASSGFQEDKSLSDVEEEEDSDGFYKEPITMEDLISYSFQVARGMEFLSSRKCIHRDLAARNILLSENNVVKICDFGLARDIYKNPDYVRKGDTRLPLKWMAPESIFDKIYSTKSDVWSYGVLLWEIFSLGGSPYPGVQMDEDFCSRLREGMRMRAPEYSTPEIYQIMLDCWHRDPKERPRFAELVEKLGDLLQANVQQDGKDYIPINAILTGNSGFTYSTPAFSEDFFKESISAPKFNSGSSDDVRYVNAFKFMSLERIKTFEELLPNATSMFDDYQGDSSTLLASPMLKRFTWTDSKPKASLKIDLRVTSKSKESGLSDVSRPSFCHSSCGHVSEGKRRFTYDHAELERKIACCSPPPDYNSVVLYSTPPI
Type: cell-based
Settings: huvec
With `OC[C@@H](O)[C@@H](O)[C@H](O)[C@H](O)CO` [MANNITOL] the IC50 was “Not Active”.
With `CC(Cl)(Cl)Cl` [TRICHLOROETHANE] the IC50 was “Not Active”.
For LEAD(IV) ACETATE, the IC50 was “Not Active” and the Ki was “Not Active”.
In the case of `O=C(c1ccccc1)c1ccc2n1CCC2C(=O)O` (configuration not stated) [KETOROLAC], the IC50 is reported as “Not Active”.

System: not listed separately
Assay: DRUGMATRIX: Calcium Channel Type L, Benzothiazepine radioligand binding (ligand: [3H] Diltiazem)
Type: cell membranes, Rattus norvegicus, Wistar, Brain, Membrane
Settings: Not Active = under 50% inhibition at 10 µM
With `OC[C@@H](O)[C@@H](O)[C@H](O)[C@H](O)CO` [MANNITOL] the IC50 was “Not Active” and the Ki was “Not Active”.
For `CC(Cl)(Cl)Cl` [TRICHLOROETHANE], the IC50 was “Not Active” and the Ki was “Not Active”.
With LEAD(IV) ACETATE the IC50 was “Not Active” and the Ki was “Not Active”.
With `O=C(c1ccccc1)c1ccc2n1CCC2C(=O)O` (configuration not stated) [KETOROLAC] the IC50 was “Not Active” and the Ki was “Not Active”.

Target: Carbonic anhydrase 2 (Homo sapiens, UniProt P00918)
Assay: DRUGMATRIX: Carbonic Anhydrase II enzyme inhibition (substrate: 4-Nitrophenyl acetate (4-NPA))
Type: tissue-based, Erythrocyte
Settings: erythrocyte; Not Active = under 50% inhibition at 10 µM
With `OC[C@@H](O)[C@@H](O)[C@H](O)[C@H](O)CO` [MANNITOL] the IC50 was “Not Active”.
For `CC(Cl)(Cl)Cl` [TRICHLOROETHANE], the IC50 was “Not Active”.
In the case of LEAD(IV) ACETATE, the IC50 is reported as “Not Active” and the Ki is reported as “Not Active”.
In the case of `O=C(c1ccccc1)c1ccc2n1CCC2C(=O)O` (configuration not stated) [KETOROLAC], the IC50 is reported as “Not Active”.

System: not listed separately
Assay: DRUGMATRIX: Platelet-Derived Growth Factor (PDGF) radioligand binding (ligand: [125I] PDGF)
Type: cell-based
Settings: nih3t3; Not Active = under 50% inhibition at 10 µM
In the case of `OC[C@@H](O)[C@@H](O)[C@H](O)[C@H](O)CO` [MANNITOL], the IC50 is reported as “Not Active” and the Ki is reported as “Not Active”.
For `CC(Cl)(Cl)Cl` [TRICHLOROETHANE], the IC50 was “Not Active” and the Ki was “Not Active”.
In the case of LEAD(IV) ACETATE, the IC50 is reported as “Not Active” and the Ki is reported as “Not Active”.
With `O=C(c1ccccc1)c1ccc2n1CCC2C(=O)O` (configuration not stated) [KETOROLAC] the IC50 was “Not Active” and the Ki was “Not Active”.
